From article PMC9241942 (Microbiology Spectrum, 2022)

Assays:
[1] = Fecal vancomycin levels in original clinical stool samples of healthy volunteers, HPLC-PDA at 205 nm; format: in vivo, human; details: for Vancomycin concn, Aliquot 3 / Vancomycin concn, Aliquot 2: original stool
Method: (§1) An aliquot of stool and 1 mL of extraction solvent (acetonitrile and water, 10:90 [vol/vol], 0.1% TFA) was added into 2-mL centrifuge tube and shaken (Vortex-Genie 2 Shaker, Scientific Industries, USA) for 10 s, ultrasonicated for 5 min (Multool ultrasonic cleaner, Model: TH-030A), and centrifuged at 10,000 g for 3 min (Centrifuge 5804 R, Eppendorf). The supernatant was collected and diluted by 10-fold using the extraction solvent and was stored at −80°C prior to HPLC analysis.
(§2) The mobile phase consisted of a mixture of acetonitrile and water, (10:90 [v:v], 0.1% TFA). The flow rate and the temperature of column oven were set at 0.3 mL/min and 40°C, respectively.
(§3) Differences in concentrations were compared by RSD.

[2] = Fecal vancomycin levels in lyophilized clinical stool samples, HPLC, with water correction; format: in vivo, human
Method: as §1, §2, §3

[3] = Vancomycin stability in clinical stool samples over time (inter-day); format: in vitro ADME, human; details: for Day 0, vancomycin concn: first assay; for Day 0, vancomycin concn / Day 48, vancomycin concn: Mean ± SD, identical aliquots n = 3, SD; for Day 48, vancomycin concn: second assay after storage
Method: as §1, §2, §3

[4] = Comparison with orthophosphoric acid-based extraction method (Berthoin et al. 2009), total fecal vancomycin by HPLC; format: in vivo, human
Method: Briefly, six samples were chosen with two aliquots were prepared for each sample. The aliquots were mixed with 971 μL of water and 29 μL of 85% orthophosphoric acid according to the composition of orthophosphoric acid-based extraction solvent developed by Berthoin et al. (2009) ([17]).

[5] = cited from earlier work
Source text: The goal of the human microbiome project (HMP) is to characterize the human microbiome and analyze its role in health and disease ([1]). The HMP has advanced science on the systems biology of the gut microbiome, the most diverse and abundant microbiome in the human body. By far, the largest contributor to immediate changes in the human gut microbiome are broad spectrum antimicrobials that are excreted via the gastrointestinal tract. To be able to properly study the effect of antimicrobials on the gut microbiome, pharmacokinetic studies using validated assays in the correct biologic matrix will ... || During the phase I clinical trial mentioned above, the pharmacokinetics of ibezapolstat was evaluated using a commercial laboratory. They required the entire stool in order to homogenize the sample for accurate pharmacokinetics results as the heterogeneity of antibiotics in stool samples has not been studied. This differs from blood, urine, or other matrices in which an almost constant supply is present. However, as bowl movements only occur once per day or less, use of an entire sample for pharmacokinetic analyses excludes other microbiome evaluations from that particular day or time-period. ...

[6] = cited from earlier work; remark: listed apart in the source
Source text: The goal of the human microbiome project (HMP) is to characterize the human microbiome and analyze its role in health and disease ([1]). The HMP has advanced science on the systems biology of the gut microbiome, the most diverse and abundant microbiome in the human body. By far, the largest contributor to immediate changes in the human gut microbiome are broad spectrum antimicrobials that are excreted via the gastrointestinal tract. […] Moreover, the quantitative range of our new method ( ...

## CN[C@H](CC(C)C)C(=O)N[C@H]1C(=O)N[C@@H](CC(N)=O)C(=O)N[C@H]2C(=O)N[C@H]3C(=O)N[C@H](C(=O)N[C@H](C(=O)O)c4cc(O)cc(O)c4-c4cc3ccc4O)[C@H](O)c3ccc(c(Cl)c3)Oc3cc2cc(c3O[C@@H]2O[C@H](CO)[C@@H](O)[C@H](O)[C@H]2O[C@H]2C[C@](C)(N)[C@H](O)[C@H](C)O2)Oc2ccc(cc2Cl)[C@H]1O [vancomycin]
[1]; healthy volunteers, oral 125 mg 4 times daily for 10 days
  persistence of vancomycin in stool after end of dosing (in words): persists for several days following the end of the 10-day dosing regimen
[1]; original clinical sample 9, fecal extract diluted by 10-fold, 205 nm
  vancomycin concentration in the diluted fecal extract solution: 20.1 µg/mL
[1]; sample 5, subject H, day 5, oral 125 mg 4 times daily for 10 days, wet wt 33.0 mg
  Vancomycin concn, Aliquot 3: 259 (33.0) μg/g
[1]; sample 5, subject H, day 5, oral 125 mg 4 times daily for 10 days, wet wt 52.9 mg
  Vancomycin concn, Aliquot 2: 259 (52.9) μg/g
[1]; sample 6, subject E, day 8, oral 125 mg 4 times daily for 10 days, wet wt 40.7 mg
  Vancomycin concn, Aliquot 2: 2033 (40.7) μg/g
[1]; sample 6, subject E, day 8, oral 125 mg 4 times daily for 10 days, wet wt 106.5 mg
  Vancomycin concn, Aliquot 3: 1660 (106.5) μg/g
[1]; sample 7, subject F, day 8, oral 125 mg 4 times daily for 10 days, wet wt 48.1 mg
  Vancomycin concn, Aliquot 3: 2057 (48.1) μg/g
[1]; sample 7, subject F, day 8, oral 125 mg 4 times daily for 10 days, wet wt 55.7 mg
  Vancomycin concn, Aliquot 2: 1877 (55.7) μg/g
[1]; sample 8, subject E, day 9, oral 125 mg 4 times daily for 10 days, wet wt 61.5 mg
  Vancomycin concn, Aliquot 3: 1920 (61.5) μg/g
[1]; sample 8, subject E, day 9, oral 125 mg 4 times daily for 10 days, wet wt 91.7 mg
  Vancomycin concn, Aliquot 2: 1868 (91.7) μg/g
[1]; sample 9, subject F, day 9, oral 125 mg 4 times daily for 10 days, wet wt 68.4 mg
  Vancomycin concn, Aliquot 2: 1964 (68.4) μg/g
[1]; sample 9, subject F, day 9, oral 125 mg 4 times daily for 10 days, wet wt 80.2 mg
  Vancomycin concn, Aliquot 3: 1973 (80.2) μg/g
[1]; sample 10, subject D, day 10, oral 125 mg 4 times daily for 10 days, wet wt 34.7 mg
  Vancomycin concn, Aliquot 2: 1947 (34.7) μg/g
[1]; sample 10, subject D, day 10, oral 125 mg 4 times daily for 10 days, wet wt 57.0 mg
  Vancomycin concn, Aliquot 3: 1775 (57.0) μg/g
[1]; sample 11, subject D, day 11, oral 125 mg 4 times daily for 10 days, wet wt 62.7 mg
  Vancomycin concn, Aliquot 2: 1801 (62.7) μg/g
[1]; sample 11, subject D, day 11, oral 125 mg 4 times daily for 10 days, wet wt 64.0 mg
  Vancomycin concn, Aliquot 3: 1891 (64.0) μg/g
[1]; sample 12, subject F, day 11, oral 125 mg 4 times daily for 10 days, wet wt 47 mg
  Vancomycin concn, Aliquot 2: 1920 (47) μg/g
[1]; sample 12, subject F, day 11, oral 125 mg 4 times daily for 10 days, wet wt 54.2 mg
  Vancomycin concn, Aliquot 3: 1488 (54.2) μg/g
[1]; sample 14, subject F, day 12, oral 125 mg 4 times daily for 10 days, wet wt 60.8 mg
  Vancomycin concn, Aliquot 2: 1162 (60.8) μg/g
[1]; sample 14, subject F, day 12, oral 125 mg 4 times daily for 10 days, wet wt 74.6 mg
  Vancomycin concn, Aliquot 3: 1070 (74.6) μg/g
[1]; sample 15, subject D, day 12, oral 125 mg 4 times daily for 10 days, wet wt 59.4 mg
  Vancomycin concn, Aliquot 3: 1200 (59.4) μg/g
[1]; sample 15, subject D, day 12, oral 125 mg 4 times daily for 10 days, wet wt 90.1 mg
  Vancomycin concn, Aliquot 2: 1111 (90.1) μg/g
[2]; sample 6, subject E, day 8, oral 125 mg 4 times daily for 10 days, aliquot 1, wt 31 mg
  Lyophilized samples, Vanco conc: 9,206 μg/g
[2]; sample 6, subject E, day 8, oral 125 mg 4 times daily for 10 days, aliquot 2, wt 58.2 mg
  Lyophilized samples, Vanco conc: 10,109 μg/g
[2]; sample 6, subject E, day 8, oral 125 mg 4 times daily for 10 days, mean of 2 aliquots
  Lyophilized samples, Vanco conc, Mean: 9,658 μg/g
[2]; sample 7, subject F, day 8, oral 125 mg 4 times daily for 10 days, aliquot 1, wt 44.6 mg
  Lyophilized samples, Vanco conc: 8,614 μg/g
[2]; sample 7, subject F, day 8, oral 125 mg 4 times daily for 10 days, aliquot 2, wt 28.2 mg
  Lyophilized samples, Vanco conc: 9,367 μg/g
[2]; sample 7, subject F, day 8, oral 125 mg 4 times daily for 10 days, mean of 2 aliquots
  Lyophilized samples, Vanco conc, Mean: 8,991 μg/g
[2]; sample 8, subject E, day 9, oral 125 mg 4 times daily for 10 days, aliquot 1, wt 28.7 mg
  Lyophilized samples, Vanco conc: 10,116 μg/g
[2]; sample 8, subject E, day 9, oral 125 mg 4 times daily for 10 days, aliquot 2, wt 39.4 mg
  Lyophilized samples, Vanco conc: 9,445 μg/g
[2]; sample 8, subject E, day 9, oral 125 mg 4 times daily for 10 days, mean of 2 aliquots
  Lyophilized samples, Vanco conc, Mean: 9,781 μg/g
[2]; sample 9, subject F, day 9, oral 125 mg 4 times daily for 10 days, aliquot 1, wt 26.7 mg
  Lyophilized samples, Vanco conc: 9,745 μg/g
[2]; sample 9, subject F, day 9, oral 125 mg 4 times daily for 10 days, aliquot 2, wt 43.3 mg
  Lyophilized samples, Vanco conc: 8,981 μg/g
[2]; sample 9, subject F, day 9, oral 125 mg 4 times daily for 10 days, aliquot 3, wt 60.8 mg
  Lyophilized samples, Vanco conc: 8,935 μg/g
[2]; sample 9, subject F, day 9, oral 125 mg 4 times daily for 10 days, mean of 3 aliquots
  Lyophilized samples, Vanco conc, Mean: 9,220 μg/g
[2]; sample 10, subject D, day 10, oral 125 mg 4 times daily for 10 days, aliquot 1, wt 41.2 mg
  Lyophilized samples, Vanco conc: 7,501 μg/g
[2]; sample 10, subject D, day 10, oral 125 mg 4 times daily for 10 days, aliquot 2, wt 75.3 mg
  Lyophilized samples, Vanco conc: 6,911 μg/g
[2]; sample 10, subject D, day 10, oral 125 mg 4 times daily for 10 days, mean of 2 aliquots
  Lyophilized samples, Vanco conc, Mean: 7,206 μg/g
[2]; sample 11, subject D, day 11, oral 125 mg 4 times daily for 10 days, aliquot 1, wt 51.9 mg
  Lyophilized samples, Vanco conc: 7,688 μg/g
[2]; sample 11, subject D, day 11, oral 125 mg 4 times daily for 10 days, aliquot 2, wt 36.8 mg
  Lyophilized samples, Vanco conc: 8,166 μg/g
[2]; sample 11, subject D, day 11, oral 125 mg 4 times daily for 10 days, aliquot 3, wt 30 mg
  Lyophilized samples, Vanco conc: 6,457 μg/g
[2]; sample 11, subject D, day 11, oral 125 mg 4 times daily for 10 days, mean of 3 aliquots
  Lyophilized samples, Vanco conc, Mean: 7,437 μg/g
[2]; sample 12, subject F, day 11, oral 125 mg 4 times daily for 10 days, aliquot 1, wt 12.7 mg
  Lyophilized samples, Vanco conc: 9,026 μg/g
[2]; sample 12, subject F, day 11, oral 125 mg 4 times daily for 10 days, aliquot 2, wt 32.6 mg
  Lyophilized samples, Vanco conc: 8,563 μg/g
[2]; sample 12, subject F, day 11, oral 125 mg 4 times daily for 10 days, aliquot 3, wt 49.2 mg
  Lyophilized samples, Vanco conc: 6,962 μg/g
[2]; sample 12, subject F, day 11, oral 125 mg 4 times daily for 10 days, mean of 3 aliquots
  Lyophilized samples, Vanco conc, Mean: 8,184 μg/g
[2]; sample 14, subject F, day 12, oral 125 mg 4 times daily for 10 days, aliquot 1, wt 19 mg
  Lyophilized samples, Vanco conc: 6,748 μg/g
[2]; sample 14, subject F, day 12, oral 125 mg 4 times daily for 10 days, aliquot 2, wt 37.1 mg
  Lyophilized samples, Vanco conc: 5,810 μg/g
[2]; sample 14, subject F, day 12, oral 125 mg 4 times daily for 10 days, aliquot 3, wt 56.2 mg
  Lyophilized samples, Vanco conc: 5,803 μg/g
[2]; sample 14, subject F, day 12, oral 125 mg 4 times daily for 10 days, mean of 3 aliquots
  Lyophilized samples, Vanco conc, Mean: 6,120 μg/g
[2]; sample 15, subject D, day 12, oral 125 mg 4 times daily for 10 days, aliquot 1, wt 41.6 mg
  Lyophilized samples, Vanco conc: 5,058 μg/g
[2]; sample 15, subject D, day 12, oral 125 mg 4 times daily for 10 days, aliquot 2, wt 38.5 mg
  Lyophilized samples, Vanco conc: 4,941 μg/g
[2]; sample 15, subject D, day 12, oral 125 mg 4 times daily for 10 days, aliquot 3, wt 44.1 mg
  Lyophilized samples, Vanco conc: 4,921 μg/g
[2]; sample 15, subject D, day 12, oral 125 mg 4 times daily for 10 days, mean of 3 aliquots
  Lyophilized samples, Vanco conc, Mean: 4,973 μg/g
[3]; clinical stool sample 5
  Day 0, vancomycin concn: 269 ± 3 µg/g
  Day 48, vancomycin concn: 259 ± 14 µg/g
[3]; clinical stool sample 9
  Day 0, vancomycin concn: 1,897 ± 7 μg/g
  Day 48, vancomycin concn: 1,905 ± 12 μg/g
[3]; clinical stool sample 14
  Day 0, vancomycin concn: 1,211 ± 8 μg/g
  Day 48, vancomycin concn: 1,220 ± 11 μg/g
[3]; clinical stool samples, up to 49 days studied
  stability of vancomycin concentrations in stool over time: stable over time up to 49 days
[4]; clinical sample 5, two aliquots
  Fecal vancomycin concentration (Mean ± SD), Previous method: 267 ± 45 µg/mL
[4]; clinical sample 6, two aliquots
  Fecal vancomycin concentration (Mean ± SD), Previous method: 2,045±100 µg/ml
[4]; clinical sample 8, two aliquots
  Fecal vancomycin concentration (Mean ± SD), Previous method: 2,110±23 µg/ml
[4]; clinical sample 9, two aliquots
  Fecal vancomycin concentration (Mean ± SD), Previous method: 2,106±33 µg/ml
[4]; clinical sample 12, two aliquots
  Fecal vancomycin concentration (Mean ± SD), Previous method: 1,771±11 µg/ml
[4]; clinical sample 14, two aliquots
  Fecal vancomycin concentration (Mean ± SD), Previous method: 1,253±47 µg/ml
[5]
  water solubility (in words): water-soluble
[5]; general statement of the discussion, no reference given
  hydrophilicity (in words): hydrophilic drug
[6]
  typical fecal vancomycin level after standard oral vancomycin administration: > 100 µg/mL
[6]; oral, mainly excreted into the stool
  absorption from the human gastrointestinal (GI) tract (in words): absorbed minimally
